From article PMC12040169 (PLOS Biology, 2025)

Experiment: in vitro
Details: human, hela cells, % viability

SMILES | viability at 28.5 h, 10 µM [%]
Nc1ncc(-c2ccc(C(=O)N3CCOCC3)cc2)cc1C(=O)NCc1c(F)cccc1F [CBK158569] | 80.6
CN(C)CC(C)(C)CNC(=O)c1cc(-c2ccc(C(=O)N3CCOCC3)cc2)cnc1N [CBK158574] | 80.2
Nc1ncc(-c2ccc(C(=O)N3CCOCC3)cc2)cc1C(=O)NCCc1ccc(O)cc1 [CBK158577] | 92.5
CN1CCN(C(=O)c2cc(-c3ccc(C(=O)N4CCOCC4)cc3)cnc2N)CC1 [CBK158584] | 85.6
Nc1ncc(-c2ccc(C(=O)N3CCOCC3)cc2)cc1C(=O)NCc1ccc(S(N)(=O)=O)cc1 [CBK158597] | 105
CS(=O)(=O)c1ccc(CNC(=O)c2cc(-c3ccc(C(=O)N4CCOCC4)cc3)cnc2N)cc1 [CBK158599] | 93
CSCCCNC(=O)c1cncc(-c2ccc(C(=O)N3CCOCC3)cc2)c1 [CBK158610] | 92.7
O=C(NCc1ccc(Cl)c(Cl)c1)c1cncc(-c2ccc(C(=O)N3CCOCC3)cc2)c1 [CBK158612] | 98.2
O=C(NCc1ccc2c(c1)OCO2)c1cncc(-c2ccc(C(=O)N3CCOCC3)cc2)c1 [CBK158614] | 108
O=C(NCCc1ccc(O)cc1)c1cncc(-c2ccc(C(=O)N3CCOCC3)cc2)c1 [CBK158620] | 112
COc1cc(CNC(=O)c2cncc(-c3ccc(C(=O)N4CCOCC4)cc3)c2)cc(OC)c1OC [CBK158632] | 114
CCOC(=O)CCNC(=O)c1cncc(-c2ccc(C(=O)N3CCOCC3)cc2)c1 [CBK158645] | 92.6
CCCC1CCN(CC2C=Cc3cc(-c4ccc(S(C)(=O)=O)cc4)ccc3O2)CC1 (stereo not drawn) [CBK158647] | 86.2
CCc1ccc(CNC(=O)Cn2cnc(-c3ccc(CN4CCC(C)CC4)cc3)c2)cc1 [CBK158710T] | 100
Cc1onc(-c2ccccc2)c1C(=O)N1CCC(C(N)=O)CC1 [CBK158721] | 84.4
CCN(CC)C(=O)CN(CCc1ccc(OC)c(OC)c1)C(=O)NCCN1CCOCC1 [CBK158734] | 93.1
CCN(CC)C(=O)CN(CCc1ccc(OC)c(OC)c1)C(=O)NCc1ccc(Cl)cc1 [CBK158742] | 110
COc1ccc(CCN(Cc2ccc(Cl)c(Cl)c2)C(=O)Nc2cccnc2)cc1OC [CBK158797] | 96.1
CCN(CC)CCN(C(=O)NCCCSC)C(C)c1ccc(OC)c(OC)c1 (stereo not drawn) [CBK158803] | 94.3
CC(=O)Nc1ccc(-c2ccc(C(=O)NCc3cccnc3)cn2)cc1 [CBK158842] | 96.9
CCN(CC)C(=O)c1ccc(-c2ccc(NC(C)=O)cc2)nc1 [CBK158850] | 101
COc1cc(CNC(=O)c2ccc(-c3ccc(NC(C)=O)cc3)nc2)cc(OC)c1OC [CBK158851] | 100

SMILES | viability at 28.5 h, 10 µM [%]
CC(=O)Nc1ccc(-c2ccc(C(=O)NC3CC3)cn2)cc1 [CBK158854] | 84.9
CC(=O)Nc1ccc(-c2ccc(C(=O)NCc3ccc(C(C)C)cc3)cn2)cc1 [CBK158857] | 101
CC(=O)Nc1ccc(-c2ccc(C(=O)NCc3ccc(S(C)(=O)=O)cc3)cn2)cc1 [CBK158860] | 92.1
CCOC(=O)N1CCC(NC(=O)N(Cc2cccnc2)Cc2ccc3c(c2)OCO3)CC1 [CBK158897] | 95.4
CSCCCNC(=O)N1CCN(CCc2ccccc2)CC1 [CBK158900] | 81.6
O=C(NCCN1CCOCC1)N1CCN(CCc2ccccc2)CC1 [CBK158908] | 85.5
COc1cc(CNC(=O)N2CCN(CCc3ccccc3)CC2)cc(OC)c1OC [CBK158910] | 91.8
NC(=O)c1ccc(NC(=O)N2CCN(CCc3ccccc3)CC2)cc1 [CBK158924] | 95.3
COc1cc(NC(=O)N2CCN(CCc3ccccc3)CC2)cc(OC)c1OC [CBK158933] | 100
O=C(NC1CCc2ccccc21)N1CCN(CCc2ccccc2)CC1 (stereo not drawn) [CBK158936] | 96.1
CCOC(=O)N1CCC(NC(=O)N2CCN(CCc3ccccc3)CC2)CC1 [CBK158938] | 89.8
CCN(CC)CCN(C(=O)NCCc1c[nH]c2ccc(OC)cc12)C(C)c1ccc(OC)c(OC)c1 (stereo not drawn) [CBK158948] | 90.4
COc1ccc(C(C)N(CCN2CCOCC2)C(=O)NCc2cccc3ccccc23)cc1OC (stereo not drawn) [CBK158984] | 96.4
CCN(CC)CCN(Cc1ccc2c(c1)OCO2)C(=O)Nc1ccc2[nH]ccc2c1 [CBK159037] | 96.7
COc1ccc(CN(CCCN2CCOCC2)C(=O)NCc2ccc(C#N)cc2)cc1OC [CBK159125] | 89
CCN(CC)c1ccc(NC(=O)N(CCCN2CCOCC2)Cc2ccc(OC)c(OC)c2)cc1 [CBK159168] | 91.1
COc1ccc(CN(CCN(C)C)C(=O)NCc2ccc(Cl)cc2)cc1OC [CBK159303] | 87.7
CCN(CC)c1ccc(CN(CCCN(C)C)C(=O)NCC2CCCCC2)cc1 [CBK159392] | 106
O=C(NCc1ccc(Cl)cc1)N(Cc1cccnc1)Cc1ccc2c(c1)OCO2 [CBK159449] | 97
O=C(NCc1c(Cl)cccc1Cl)N(Cc1cccnc1)Cc1ccc2c(c1)OCO2 [CBK159450] | 96.8
COc1ccc(CNC(=O)N(Cc2cccnc2)Cc2ccc3c(c2)OCO3)cc1OC [CBK159456] | 87.3
COc1ccc(-c2csc(CC(=O)O)n2)cc1 [CBK159469] | 85.4

SMILES | viability at 28.5 h, 10 µM [%]
COc1cc(C)ccc1S(=O)(=O)Nc1cccc2cc[nH]c12 [CBK159511] | 81.8
O=S(=O)(Nc1cccc2cc[nH]c12)c1ccc(Br)cc1C(F)(F)F [CBK159519] | 88.5
CS(=O)(=O)Nc1ccc2c(ccn2Cc2ccccc2)c1 [CBK159527] | 104
O=S(=O)(Nc1ccc2c(ccn2Cc2ccccc2)c1)c1cc(C(F)(F)F)cc(C(F)(F)F)c1 [CBK159540] | 94.7
Cn1cnc(S(=O)(=O)Nc2cccc3cc[nH]c23)c1 [CBK159554] | 94
CCc1c(C)nc2c(NC(C)=O)cccc2c1SCCC(=O)O [CBK159594T] | 106
O=C(Nc1ccc2[nH]ccc2c1)c1ccc(Cl)cc1 [CBK159668] | 98.4
O=C(Nc1ccc2[nH]ccc2c1)c1ccc(Br)cc1Cl [CBK159679] | 106
O=C(Cc1cc(F)c(F)c(F)c1)Nc1ccc2[nH]ccc2c1 [CBK159684] | 91.7
O=C(COc1ccc(F)cc1)Nc1ccc2[nH]ccc2c1 [CBK159689] | 98.6
CN(C)CCCC(=O)Nc1ccc2[nH]ccc2c1 [CBK159698] | 114
CN1CCC[C@H]1C(=O)Nc1ccc2[nH]ccc2c1 [CBK159699] | 97.6
O=C(Cc1ccc(Cl)c(Cl)c1)NCCc1c[nH]c2ccc(Cl)cc12 [CBK159749] | 100
O=C(NCCc1c[nH]c2ccc(Cl)cc12)c1ccc(Cl)cc1Cl [CBK159750] | 105
O=C(Cc1cc(Cl)ccc1C(F)(F)F)NCCc1c[nH]c2ccc(Cl)cc12 [CBK159759] | 80.2
O=C(NCCc1c[nH]c2ccc(Cl)cc12)c1ccc(Br)cc1Cl [CBK159762] | 89.1
O=C(Cc1cc(F)c(F)c(F)c1)NCCc1c[nH]c2ccc(Cl)cc12 [CBK159768] | 112
NS(=O)(=O)c1ccc(C(=O)NCCc2c[nH]c3ccc(Cl)cc23)cc1 [CBK159780] | 95.2
O=C(NCCc1c[nH]c2ccc(Cl)cc12)c1ccoc1 [CBK159782] | 97.9
O=C(Cc1ccc(Cl)cc1Cl)Nc1ccc2ncccc2c1 [CBK159787] | 91.5
O=C(Nc1ccc2ncccc2c1)c1ccc(Cl)cc1Cl [CBK159793] | 96.5
O=C(Cc1cc(Cl)ccc1C(F)(F)F)Nc1ccc2ncccc2c1 [CBK159802] | 94.7

SMILES | viability at 28.5 h, 10 µM [%]
O=C(Cc1cc(F)c(F)c(F)c1)Nc1ccc2ncccc2c1 [CBK159811] | 93
Cc1cc(Br)ccc1C(=O)Nc1ccc2ncccc2c1 [CBK159814] | 92.1
O=C(Nc1ccc2ncccc2c1)c1ccc(OC(F)(F)F)cc1 [CBK159815] | 90.9
O=C(COc1ccc(F)cc1)Nc1ccc2ncccc2c1 [CBK159816] | 85.7
CSCCC(=O)Nc1ccc2ncccc2c1 [CBK159818] | 87.2
O=C(Nc1ccc2ncccc2c1)c1cccnc1 [CBK159820] | 94.1
CN(C)CCCC(=O)Nc1ccc2ncccc2c1 [CBK159824] | 83.4
O=C(Nc1cccc(C(F)(F)F)c1)c1c(O)c2ccccc2[nH]c1=O [CBK159985] | 93.2
CC(C)c1c(O)c2ccccc2[nH]c1=O [CBK159988] | 89.4
Cc1ccc2c(O)c(C(=O)NCc3cccs3)cnc2c1 [CBK159997] | 78.2
O=C(Cc1c[nH]cn1)Nc1ccc2cc[nH]c2c1 [CBK160059] | 95.1
O=C(Nc1cccc2cc[nH]c12)c1cc(F)cc(Cl)c1 [CBK160075] | 88.8
O=C(Nc1cccc2cc[nH]c12)c1cc(F)c(Cl)cc1F [CBK160080] | 82.4
O=C(Cc1c[nH]cn1)Nc1cccc2cc[nH]c12 [CBK160097] | 86.2
O=C(c1ccc(F)cc1)C1CCN(C(=O)c2cccnc2NCc2ccc3c(c2)OCO3)CC1 [CBK160114] | 113
CC(C)(C)OC(=O)NCCNC(=O)c1cccnc1NCc1ccc2c(c1)OCO2 [CBK160117] | 104
CCOC(=O)c1[nH]c2ccccc2c1NC(=O)c1c(F)ccc(Cl)c1F [CBK160141] | 120
CCOC(=O)c1[nH]c2ccccc2c1NC(=O)c1cc(F)cc(Cl)c1 [CBK160143] | 95.4
CCOC(=O)c1[nH]c2ccccc2c1NC(=O)c1ccc(Cl)c(C)c1 [CBK160146] | 87
CCOC(=O)c1[nH]c2ccccc2c1NC(=O)c1ccc(Br)cc1Cl [CBK160147] | 91.3

Same assay, conditions: human, hela cells, % viability, bulk resorufin, single well

SMILES | viability at 28.5 h, 10 µM [%]
CC(C)(C)OC(=O)N1CCC2(CC1)OCc1cc(-c3ccc(S(C)(=O)=O)nc3)ccc1O2 [CBK159619] | 83.6
